For one series, the system named is sarcoma 180. Particulars: literature (Lin et al. 1983); cited from earlier work.
Series [1] concerns MCF-7 (breast cancer). Description: Cytotoxicity test with sulphorhodamine B, MCF-7 line. The conditions noted are these: for IC50: Homo sapiens, MCF7, 72 h, read-out: Cytotoxic activity IC50 MCF-7 line (breast cancer), 72 hours incubation, average of three independent determinations.
Experimental: (§1) Cytotoxicity tests were carried out using a standard procedure with sulphorhodamine B. They involved incubation of the cancer cell lines in the logarithmic growth phase for 72 hours with the compound tested and, subsequently, spectrophotometric determination of the degree of cell growth inhibition using adsorption of a dye (sulphorhodamine B) which binds cellular proteins.
(§2) Cells of the cell line tested in the logarithmic growth phase were seeded onto 24-well plates in a quantity of 20,000 cells/2 mL of the growth medium per well and, subsequently, incubated in an incubator at 37° C., in the 5% CO2 atmosphere for 24 hours.
(§3) Solutions of the test compounds were prepared in DMSO in the following concentration range: 0.05; 0.1; 0.5; 1; 5; 10; 50; 100; 500 μM.
(§4) The cells of the lines tested were treated with the solutions of the test compounds in a laminar-flow chamber which ensured sterile working conditions according to the following procedure: the first three wells were used as a blank: they contained 20 μL of DMSO only; successive solutions of the test compound were added to subsequent wells (20 μL), starting with the lowest concentration (three wells for each concentration level). Subsequently, the plates were placed in an incubator for 72 hours.
(§5) After the end of incubation, the adhered cells were fixed by adding 500 μL of cold (4° C. 50% trichloroacetic acid (TCA) and incubated at 4° C. for 1 hour. Subsequently, each well was rinsed with sterile water and dried. The operation was repeated five times. The fixed cells were stained for 30 minutes by adding 500 μL of 0.4% of a dye solution (sulphorhodamine B) dissolved in 1% acetic acid. Any unbound dye was removed by decanting it from the plate, and the cells were washed 4 times with 1% acetic acid. Subsequently, the plates were dried in air for approx. 5 minutes. Any unbound dye was dissolved by adding 1500 μL of 10 mM Tris-base buffer (trishydroxymethylaminomethane) to each well and shaken using an orbital shaker for 5 minutes. Subsequently, 200 μL of solution from each well was transferred to each of two wells on a new 96-well plate and absorption of the solutions was determined spectrophotometrically at a wavelength of 490-530 nm using a plate reader. Percentage inhibition of cell growth by the test compound was calculated assuming the absorption of the control solution as 100%.
(§6) Depending on the type of the cell line, the following growth media were used: • the MCF-7 line was grown in Dulbecco's Modified Eagle's Medium (DME) from Sigma (cat. no. D5796), • the HeLa and Hep-G2 lines were grown in PPMI-1640 Medium from Sigma (cat. no. R8758).
Series [2] deals with L1210 cancer in mice induced by MLV retroviruses. The conditions noted are these: literature (Colla et al. 1985); cited from earlier work.
For a further series, the system named is Hep-G2 (hepatic cancer). Description: Cytotoxicity test with sulphorhodamine B, Hep-G2 line. The conditions noted are these: for IC50: Homo sapiens, HepG2, 72 hours incubation, average of three independent determinations, read-out: Cytotoxic activity IC50 Hep-G2 (hepatic cancer); for fold higher activity than AddFU: Hep-G2, ratio of IC50. The format is cell-based. The text has this:
The values are average results of three independent determinations.

The test system of series [3] is HeLa (cervical cancer). Description: Cytotoxicity test with sulphorhodamine B, HeLa line. The conditions noted are these: for IC50: Homo sapiens, 72 h, read-out: Cytotoxic activity IC50 HeLa (cervical cancer), 72 hours incubation, average of three independent determinations.
Experimental: as §1, §2, §3, §4, §5, §6
In series [4] the test system is HeLa (cervical cancer). Particulars: for Cytotoxic activity IC50 HeLa (cervical cancer): human, 72 h.
Experimental: as §1, §2, §3, §4, §5, §6
Series [5] relates to MCF-7 (breast cancer). The conditions noted are these: for Cytotoxic activity IC50 MCF-7 line (breast cancer): human, 72 h.
Experimental: as §1, §2, §3, §4, §5, §6

Here are results for ten molecules from patent publication US9388209B2, “2′, 3′-dideoxy-5-fluorouridine derivatives, a process for the manufacture thereof and application thereof” (ADAM MICKIEWICZ UNIVERSITY, priority 2014, dated 2016).

Converted amounts (≈) assume the structure as drawn. “And” between values parts separate entries of the source, which are not always exact repeats. Equal entries are not always repeated.

On to `[N-]=[N+]=N[C@H]1C[C@H](n2cc(F)c(=O)[nH]c2=O)O[C@@H]1CO` [3′-azido-2′,3′-dideoxy-5-fluorouridine, reference compound], for which the “activity against sarcoma 180 in vitro, in words” value in the series on sarcoma 180 was “weak activity”. The IC50 (in general, the concentration that inhibits the measured activity by half) in the series with MCF-7 (breast cancer) [1] is 2.2 µg/mL and 8.11 µM; with Hep-G2 (hepatic cancer), 16 µg/mL and 59 µM; with HeLa (cervical cancer) [3], 3 µg/mL and 11.1 µM. Moreover, the “IC50 against L1210 cancer” value in series [2] was 34 µg/mL (≈ 125 µM).

Regarding `O=c1[nH]c(=O)n([C@H]2C[C@H](O)[C@@H](CO)O2)cc1F` [5-fluoro-2′-deoxyuridine, reference compound], the IC50 in the series on MCF-7 (breast cancer) [1] is 2.81 µg/mL and 11.4 µM; with HeLa (cervical cancer) [3], 3.2 µg/mL and 13 µM.

Regarding `O=c1[nH]c(=O)n(C2CC(n3cc(C4CN5CCC4C[C@H]5[C@H](O)c4ccnc5ccccc45)nn3)C(CO)O2)cc1F` (stereo partly drawn) [CD5FdU, 5-Fluoro-1-(5-hydroxymethyl-4-{4-[6-(hydroxy-quinolin-4-yl-methyl)-1-aza-bicyclo[2.2.2]oct-3-yl]-[1,2,3]triazol-1-yl}-tetrahydro-furan-2-yl)-1H-pyrimidine-2,4-dione], the “cytotoxic activity in words, cervical cancer cells (HeLa line)” value (from here on “cytotoxic activity in words … (HeLa line)”) in the series with HeLa (cervical cancer) [4] is “medium active”. Moreover, the half-inhibitory concentration (IC50) is 6.9 µg/mL and 12.2 µM in the series on MCF-7 (breast cancer) [1]; 7 µg/mL and 12.4 µM with HeLa (cervical cancer) [3].

On to `O=c1[nH]c(=O)n(C2CC(n3cc(C4CN5CCC4C[C@@H]5[C@@H](O)c4ccnc5ccccc45)nn3)C(CO)O2)cc1F` (stereo partly drawn) [CN5FdU, 5-Fluoro-1-(5-hydroxymethyl-4-{4-[6-(hydroxy-quinolin-4-yl-methyl)-1-aza-bicyclo[2.2.2]oct-3-yl]-[1,2,3]triazol-1-yl}-tetrahydro-furan-2-yl)-1H-pyrimidine-2,4-dione], for which, in the series with HeLa (cervical cancer) [4], the “cytotoxic activity in words … (HeLa line)” value is on record as “medium active”. For the same molecule, the IC50 with MCF-7 (breast cancer) [1] was 7 µg/mL and 12.4 µM; with HeLa (cervical cancer) [3], 7.9 µg/mL and 14 µM.

Take `C=CC1C[N@@]2CCC1C[C@H]2[C@H](OCc1cn(C2CC(n3cc(F)c(=O)[nH]c3=O)OC2CO)nn1)c1ccnc2ccccc12` (stereo partly drawn) [PCD5FdU, 5-Fluoro-1-(5-hydroxymethyl-4-{4-[quinolin-4-yl-(5-vinyl-1-aza-bicyclo[2.2.2]oct-2-yl)-methoxymethyl]-[1,2,3]triazol-1-yl}-tetrahydrofuran-2-yl)-1H-pyrimidine-2,4-dione]: in the series on HeLa (cervical cancer) [4], the “cytotoxic activity in words … (HeLa line)” value is recorded as “medium active”. Moreover, the half-inhibitory concentration (IC50) in the series on MCF-7 (breast cancer) [1] was 13 µg/mL and 21.5 µM; in the series on HeLa (cervical cancer) [3] it was 21.4 µg/mL and 35.5 µM.

On to `C=CC1C[N@@]2CCC1C[C@@H]2C(OCc1cn(C2CC(n3cc(F)c(=O)[nH]c3=O)OC2CO)nn1)c1ccnc2ccccc12` (stereo partly drawn) [PCN5FdU, 5-Fluoro-1-(5-hydroxymethyl-4-{4-[quinolin-4-yl-(5-vinyl-1-aza-bicyclo[2.2.2]oct-2-yl)-methoxymethyl]-[1,2,3]triazol-1-yl}-tetrahydrofuran-2-yl)-1H-pyrimidine-2,4-dione], for which the “cytotoxic activity in words … (HeLa line)” value with HeLa (cervical cancer) [4] is recorded as “medium active”. The IC50 was 27.2 µg/mL and 45.1 µM with MCF-7 (breast cancer) [1]; 27.6 µg/mL and 45.7 µM in the series with HeLa (cervical cancer) [3].

With `C=CC1C[N@@]2CCC1C[C@@H]2[C@@H](OCc1cn(C2CC(n3cc(F)c(=O)[nH]c3=O)OC2CO)nn1)c1ccnc2ccc(OC)cc12` (stereo partly drawn) [PQD5FdU, 5-Fluoro-1-(5-hydroxymethyl-4-{4-[(6-methoxyquinolin-4-yl)-(5-vinyl-1-aza-bicyclo[2.2.2]oct-2-yl)-methoxymethyl]-[1,2,3]triazol-1-yl}-tetrahydrofuran-2-yl)-1H-pyrimidine-2,4-dione], the half-inhibitory concentration (IC50) in the series on MCF-7 (breast cancer) [1] was 2.9 µg/mL and 4.58 µM; with Hep-G2 (hepatic cancer), 6 µg/mL and 9.47 µM; in the series with HeLa (cervical cancer) [3], 2.8 µg/mL and 4.42 µM. Further, in the series with MCF-7 (breast cancer) [5], the “cytotoxic activity in words, breast cancer cells” value is recorded as “medium active”. In addition, the “fold higher activity than AddFU” value with Hep-G2 (hepatic cancer) is “more than twice as high”.

As for `C=CC1C[N@@]2CCC1C[C@H]2[C@H](OCc1cn(C2CC(n3cc(F)c(=O)[nH]c3=O)OC2CO)nn1)c1ccnc2ccc(OC)cc12` (stereo partly drawn) [PQN5FdU, 5-Fluoro-1-(5-hydroxymethyl-4-{4-[(6-methoxyquinolin-4-yl)-(5-vinyl-1-aza-bicyclo[2.2.2]oct-2-yl)-methoxymethyl]-[1,2,3]triazol-1-yl}-tetrahydrofuran-2-yl)-1H-pyrimidine-2,4-dione], in the series with HeLa (cervical cancer) [4], the “Cytotoxic activity IC50 HeLa (cervical cancer)” value worked out at 2.0 µg/mL. Further, the IC50 is 0.98 µg/mL to 1.5 µg/mL and 2.37 µM in the series on MCF-7 (breast cancer) [1]; 6.2 µg/mL and 9.78 µM in the series on Hep-G2 (hepatic cancer); 1.6 µg/mL to 2.8 µg/mL and 3.16 µM in the series with HeLa (cervical cancer) [3]. In addition, in the series with MCF-7 (breast cancer) [5], the “Cytotoxic activity IC50 MCF-7 line (breast cancer)” value stood at 1.5 µg/mL. Further, the “fold higher activity than AddFU” value with Hep-G2 (hepatic cancer) was “more than twice as high”.

For `COc1ccc2nccc([C@H](O)[C@H]3CC4CC[N@]3CC4c3cn(C4CC(n5cc(F)c(=O)[nH]c5=O)OC4CO)nn3)c2c1` (stereo partly drawn) [QD5FdU, 5-Fluoro-1-[4-(4-{6-[hydroxy-(6-methoxyquinolin-4-yl)-methyl]-1-aza-bicyclo[2.2.2]oct-3-yl}-[1,2,3]triazol-1-yl)-5-hydroxymethyl-tetrahydro-furan-2-yl]-1H-pyrimidine-2,4-dione], the “Cytotoxic activity IC50 HeLa (cervical cancer)” value with HeLa (cervical cancer) [4] was 1.6 µg/mL. Further, the 50% inhibitory concentration (IC50) in the series on MCF-7 (breast cancer) [1] was 0.98 µg/mL to 1.5 µg/mL and 1.65 µM; with HeLa (cervical cancer) [3], 1.6 µg/mL to 2.8 µg/mL and 2.7 µM. Besides, the “Cytotoxic activity IC50 MCF-7 line (breast cancer)” value with MCF-7 (breast cancer) [5] was determined as 0.98 µg/mL.

Turning to `COc1ccc2nccc(C(O)[C@@H]3CC4CCN3CC4c3cn(C4CC(n5cc(F)c(=O)[nH]c5=O)OC4CO)nn3)c2c1` (stereo partly drawn) [QN5FdU, 5-Fluoro-1-[4-(4-{6-[hydroxy-(6-methoxyquinolin-4-yl)-methyl]-1-aza-bicyclo[2.2.2]oct-3-yl}-[1,2,3]triazol-1-yl)-5-hydroxymethyl-tetrahydro-furan-2-yl]-1H-pyrimidine-2,4-dione], the half-inhibitory concentration (IC50) in the series with MCF-7 (breast cancer) [1] is 0.16 µg/mL and 270 nM; in the series with Hep-G2 (hepatic cancer), 3.8 µg/mL and 6.4 µM; in the series on HeLa (cervical cancer) [3], 0.16 µg/mL and 270 nM. Also, the “fold higher activity than 5FdU” value in the series with MCF-7 (breast cancer) [1] (MCF-7, ratio of IC50) is given as “more than 17.5 fold”; in the series on HeLa (cervical cancer) [3] (ratio of IC50) it was “more than 20 fold”. The “fold higher activity than AddFU” value is “more than 13 fold” with MCF-7 (breast cancer) [1] (MCF-7, ratio of IC50); 4 fold with Hep-G2 (hepatic cancer); “more than 18 fold” in the series on HeLa (cervical cancer) [3] (ratio of IC50).
